From PMC10761933, “Acquired and intrinsic resistance to vemurafenib in BRAF^V600E ‐driven melanoma brain metastases” (FEBS Open Bio, 2023) come the findings set out here.

The nature of the data set: Vemurafenib distribution in plasma, brain regions and tumor of A375 tumor‐bearing mice (LC–MS/MS). In kind it is in vivo. The following applies: for discrepancy in plasma concentration vs the previous pharmacokinetic experiment: 4 h after third daily administration. As for the experimental part: To study its distribution in tumor‐bearing mice, vemurafenib was administered p.o. to tumor‐bearing mice for 3 days at a dose of 10 or 25 mg·kg^−1 q.d., starting 14 days after intracranial tumor cell injection. One group of mice received 10 mg·kg^−1 vemurafenib 4 h after administration of 100 mg·kg^−1 elacridar. Four hours after the third administration, blood was collected by heart puncture, and whole brains were dissected and divided into four parts: ipsilateral hemisphere (tissue from the tumor‐bearing hemisphere that was free of macroscopic tumor tissue), contralateral hemisphere (the tumor‐free hemisphere), cerebellum and macroscopic tumor. In a follow‐up experiment, tissues and plasma were collected 4 h after 5 and 10 consecutive daily p.o. administrations of vemurafenib. All tissues were weighed and subsequently homogenized using a FastPrep®‐24 (MP‐Bio‐medicals, Irvine, CA, USA) in 3 mL 1% (w/v) bovine serum albumin. All tissue samples were prepared for LC–MS/MS analysis as described above for plasma samples.
The LC–MS/MS system consisted of an API 3000 mass spectrometer (Sciex, Framingham, MA, USA) coupled to an UltiMate 3000 LC System (Dionex, Sunnyvale, CA, USA). Samples were separated using a ZORBAX Extend‐C18 column (Agilent, Santa Clara, CA, USA), preceded by a Securityguard C18 precolumn (Phenomenex, Utrecht, the Netherlands). Elution was done using a mixture of mobile phase A (0.1% formic acid in water (v/v)) and mobile phase B (methanol) in a 5 min gradient from 20% to 95% B, followed by 95% B that was maintained for 3 min and then re‐equilibrated at 20% B. Multiple reaction monitoring parameters were 490.2/383.1 (vemurafenib) and 496.2/389.1 (vemurafenib‐^13C6). System control and data analysis were done using ANALYST ® 1.6.2 software (AB Sciex, Foster City, CA, USA).

`CCCS(=O)(=O)Nc1ccc(F)c(C(=O)c2c[nH]c3ncc(-c4ccc(Cl)cc4)cc23)c1F` [vemurafenib]: where the note is “4 h after third daily oral administration”, the “levels in tumor core of WT mice relative to Abcb1a/b;Abcg2−/− mice” value was “approximately half”. Also, the “concentration in tumor regions, 10 days vs 5 days of treatment” value (Abcb1a/b;Abcg2−/− mice and WT mice also receiving elacridar) was “even higher at the later time point”. For the same compound, the Kp at 4 h (FVB nude, mouse, oral, 25 mg·kg^−1, WT mice, stated as very close to the total blood volume of the murine brain, read-out: tissue–plasma ratios in normal brain regions) was about 0.02. The “penetration in normal brain regions” value (WT mice, 4 h after third daily oral administration) is “negligible”. In addition, the “discrepancy in plasma concentration vs the previous pharmacokinetic experiment” value runs as follows: (tumor‐bearing Abcb1a/b;Abcg2−/− mice) “twofold”; (tumor‐bearing WT mice that also received elacridar) “no difference”. In addition, the “plasma concentration, long‐term (10 days) vs short‐term (5 days) treated” value (tumor‐bearing WT mice, 25 mg·kg^−1) is “considerably lower”. The “plasma concentration relative to the previous pharmacokinetic experiment (single dose, tumor‐free)” value (tumor‐bearing WT mice, 25 mg·kg^−1, 4 h after third daily administration) was “around one‐fourth”.
